Source: patent US10596153B2, “Antimicrobial agents and the method of synthesizing the antimicrobial agents” (Arkansas State University—Jonesboro, priority 2016, dated 2020)
Where two headings read alike, the source gives them in different places.

How the values were obtained:
Experiment in all cases: Disk diffusion assay, zone of inhibition
Format in all cases: cell-based
[1] = system: Pseudomonas aeruginosa ATCC 27853; conditions: N-arylamine derivatives; 10 μL of 0.1 M in DMSO on 6 mm disk; 20-24 hours at 35° C.; NA=No activity
Method: (§1) Bacteria were streaked onto Tryptic Soy Agar plates and incubated overnight at 35° C. Bacteria were suspended in sterile saline to the turbidity of a 0.5 McFarland standard then swabbed onto Mueller Hinton Agar plates to create lawns. Test compounds were dissolved in DMSO at a concentration of 0.1 M, and 10 μL of each were pipetted onto 6 mm diameter glass fiber disks placed on the lawns. Plates were incubated for 20-24 hours at 35° C. after which zones of inhibition (diameters in mm) were measured for each test compound.

[2] = system: Enterobacter aerogenes ATCC 13048; conditions: N-arylamine derivatives; 10 μL of 0.1 M in DMSO on 6 mm disk; 20-24 hours at 35° C.; NA=No activity
Method: as §1

[3] = system: Staphylococcus aureus ATCC 25923
Method: as §1

[4] = system: Bacillus subtilis ATCC 6633
Method: as §1

[5] = ATCC25923, read-out: Zone of inhibition in mm, S a
[6] = ATCC6633, read-out: Zone of inhibition in mm, B s, azomethines, 10 μL of 0.1 M in DMSO on 6 mm disk, 20-24 hours at 35° C., NA=No activity
[7] = ATCC6633, read-out: Zone of inhibition in mm, B s, N-arylamine derivatives, 10 μL of 0.1 M in DMSO on 6 mm disk, 20-24 hours at 35° C., NA=No activity
[8] = ATCC25923, N-arylamine derivatives, 10 μL of 0.1 M in DMSO on 6 mm disk, 20-24 hours at 35° C., NA=No activity, read-out: Zone of inhibition in mm, S a
[9] = ATCC6633, N-arylamine derivatives, 10 μL of 0.1 M in DMSO on 6 mm disk, 20-24 hours at 35° C., NA=No activity, read-out: Zone of inhibition in mm, B s
[10] = ATCC6633, azomethines, 10 μL of 0.1 M in DMSO on 6 mm disk, 20-24 hours at 35° C., NA=No activity, read-out: Zone of inhibition in mm, B s

Structure (SMILES)	zone of inhibition at 100000 µM [3, 5] [mm]	zone of inhibition at 100000 µM [4, 6] [mm]	zone of inhibition at 100000 µM [4, 7] [mm]	zone of inhibition at 100000 µM [3, 8] [mm]	zone of inhibition at 100000 µM [4, 9] [mm]	zone of inhibition at 100000 µM [4, 10] [mm]	further results
O=C(N[C@H](CO)[C@H](O)c1ccc([N+](=O)[O-])cc1)C(Cl)Cl [Chloramphenicol]	–	–	–	–	–	–	Zone of inhibition in mm, P a [1]: 8 mm; Zone of inhibition in mm, E a [2]: 28 mm
Cc1ccccc1 [a]	20	8	–	–	–	–	–
Cc1ccc(F)cc1 [b]	18	8	18	–	–	–	–
Cc1ccc(Cl)cc1 [c]	–	–	–	18	18	9	–
Cc1ccc(Br)cc1 [d]	–	–	–	9	8	8	–
Cc1ccc(C)cc1 [e]	17	8	18	–	–	–	–
Cc1ccc(C(C)(C)C)cc1 [f]	–	–	–	8	14	8	–
COc1ccc(C)cc1 [g]	15	10	14	–	–	–	–
Cc1ccc(Oc2ccccc2)cc1 [h]	–	–	–	11	12	–	–
